From ChEMBL document CHEMBL1132035, “Guanidine-substituted imidazoles as inhibitors of nitric oxide synthase” (Bioorg Med Chem Lett, 1999)
pIC50: −log10 of the molar value.

Experiments:
[1] = molecular target: T1, Nitric oxide synthase, inducible (Mus musculus, UniProt P29477); assay: Inhibition of purified mouse inducible nitric oxide synthase catalyzed [14C]L-citrulline production at a compound concentration of 1 mM in presence of 50 uM L-arginine
T1 sequence (P29477 whole entry): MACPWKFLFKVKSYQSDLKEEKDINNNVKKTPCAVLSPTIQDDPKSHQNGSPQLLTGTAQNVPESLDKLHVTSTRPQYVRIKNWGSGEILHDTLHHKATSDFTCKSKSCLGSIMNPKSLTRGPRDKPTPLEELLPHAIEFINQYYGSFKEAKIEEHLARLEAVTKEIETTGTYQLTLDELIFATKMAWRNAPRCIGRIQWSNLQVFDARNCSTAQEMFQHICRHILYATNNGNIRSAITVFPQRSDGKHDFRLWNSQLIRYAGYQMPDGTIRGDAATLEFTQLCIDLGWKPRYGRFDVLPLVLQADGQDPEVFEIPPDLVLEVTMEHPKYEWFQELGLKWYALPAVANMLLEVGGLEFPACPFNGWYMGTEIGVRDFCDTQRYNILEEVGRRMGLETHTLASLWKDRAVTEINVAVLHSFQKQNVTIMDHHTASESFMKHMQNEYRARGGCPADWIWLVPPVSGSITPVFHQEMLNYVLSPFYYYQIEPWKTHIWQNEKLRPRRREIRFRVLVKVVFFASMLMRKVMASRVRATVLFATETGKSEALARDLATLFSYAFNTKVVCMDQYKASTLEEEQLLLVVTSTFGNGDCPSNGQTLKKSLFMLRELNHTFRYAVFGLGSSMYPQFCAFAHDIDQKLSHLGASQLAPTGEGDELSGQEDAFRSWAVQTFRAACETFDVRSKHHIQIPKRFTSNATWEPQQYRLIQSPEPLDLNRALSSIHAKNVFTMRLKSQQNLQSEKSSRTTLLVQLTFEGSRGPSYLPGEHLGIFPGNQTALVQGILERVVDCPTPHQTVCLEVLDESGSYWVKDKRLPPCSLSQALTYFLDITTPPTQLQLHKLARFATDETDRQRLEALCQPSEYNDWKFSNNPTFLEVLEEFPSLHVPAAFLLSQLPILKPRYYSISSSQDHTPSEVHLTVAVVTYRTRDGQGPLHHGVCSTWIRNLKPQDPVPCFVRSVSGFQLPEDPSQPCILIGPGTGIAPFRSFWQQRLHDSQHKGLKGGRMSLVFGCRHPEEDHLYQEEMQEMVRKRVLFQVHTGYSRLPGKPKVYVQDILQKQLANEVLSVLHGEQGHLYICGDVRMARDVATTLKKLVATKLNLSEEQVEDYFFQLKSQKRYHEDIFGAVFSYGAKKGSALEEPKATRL

Nitric oxide synthase 3 [2] = molecular target: T2, Nitric oxide synthase 3 (Bos taurus, UniProt P29473); assay: Compound was evaluated as nitric oxide producing substrate of bovine Endothelial nitric oxide synthase using the Griess assay; NA means Not active
T2 sequence (P29473 whole entry): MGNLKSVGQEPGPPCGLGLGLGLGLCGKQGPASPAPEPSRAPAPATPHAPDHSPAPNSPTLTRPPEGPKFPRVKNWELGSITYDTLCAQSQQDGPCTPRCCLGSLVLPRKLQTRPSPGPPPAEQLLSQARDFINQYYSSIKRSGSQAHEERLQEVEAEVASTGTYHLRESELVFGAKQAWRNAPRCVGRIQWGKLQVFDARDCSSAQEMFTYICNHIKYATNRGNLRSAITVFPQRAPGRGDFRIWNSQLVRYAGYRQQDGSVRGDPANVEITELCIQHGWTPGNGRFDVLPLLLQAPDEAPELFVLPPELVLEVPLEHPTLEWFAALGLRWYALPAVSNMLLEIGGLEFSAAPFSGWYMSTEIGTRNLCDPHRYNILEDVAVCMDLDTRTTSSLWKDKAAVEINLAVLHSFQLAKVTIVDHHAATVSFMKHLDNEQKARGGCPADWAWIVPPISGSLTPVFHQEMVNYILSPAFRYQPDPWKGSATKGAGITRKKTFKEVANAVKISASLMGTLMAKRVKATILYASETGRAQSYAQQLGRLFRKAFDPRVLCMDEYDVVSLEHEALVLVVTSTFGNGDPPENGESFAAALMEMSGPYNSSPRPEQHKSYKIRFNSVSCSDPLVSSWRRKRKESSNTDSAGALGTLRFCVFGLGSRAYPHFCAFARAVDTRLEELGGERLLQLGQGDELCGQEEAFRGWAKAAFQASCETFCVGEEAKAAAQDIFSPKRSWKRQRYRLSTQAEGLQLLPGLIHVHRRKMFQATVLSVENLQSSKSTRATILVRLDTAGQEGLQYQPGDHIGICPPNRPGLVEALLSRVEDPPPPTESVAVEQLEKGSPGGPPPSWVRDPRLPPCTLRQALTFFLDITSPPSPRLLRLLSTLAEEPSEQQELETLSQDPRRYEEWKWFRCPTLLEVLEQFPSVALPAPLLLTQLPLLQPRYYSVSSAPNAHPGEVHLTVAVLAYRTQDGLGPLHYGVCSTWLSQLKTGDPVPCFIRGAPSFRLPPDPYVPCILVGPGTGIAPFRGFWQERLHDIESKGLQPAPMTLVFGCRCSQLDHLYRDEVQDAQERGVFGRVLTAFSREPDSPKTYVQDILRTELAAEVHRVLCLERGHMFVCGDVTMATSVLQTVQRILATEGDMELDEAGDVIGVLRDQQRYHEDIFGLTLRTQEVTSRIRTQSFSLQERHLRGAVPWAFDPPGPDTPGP

Nitric oxide synthase 1 [3] = molecular target: T3, Nitric oxide synthase 1 (Rattus norvegicus, UniProt P29476); assay: Compound was evaluated as nitric oxide producing substrate of rat Neuronal nitric oxide synthase using the Griess assay; NA means Not active
T3 sequence (P29476 whole entry): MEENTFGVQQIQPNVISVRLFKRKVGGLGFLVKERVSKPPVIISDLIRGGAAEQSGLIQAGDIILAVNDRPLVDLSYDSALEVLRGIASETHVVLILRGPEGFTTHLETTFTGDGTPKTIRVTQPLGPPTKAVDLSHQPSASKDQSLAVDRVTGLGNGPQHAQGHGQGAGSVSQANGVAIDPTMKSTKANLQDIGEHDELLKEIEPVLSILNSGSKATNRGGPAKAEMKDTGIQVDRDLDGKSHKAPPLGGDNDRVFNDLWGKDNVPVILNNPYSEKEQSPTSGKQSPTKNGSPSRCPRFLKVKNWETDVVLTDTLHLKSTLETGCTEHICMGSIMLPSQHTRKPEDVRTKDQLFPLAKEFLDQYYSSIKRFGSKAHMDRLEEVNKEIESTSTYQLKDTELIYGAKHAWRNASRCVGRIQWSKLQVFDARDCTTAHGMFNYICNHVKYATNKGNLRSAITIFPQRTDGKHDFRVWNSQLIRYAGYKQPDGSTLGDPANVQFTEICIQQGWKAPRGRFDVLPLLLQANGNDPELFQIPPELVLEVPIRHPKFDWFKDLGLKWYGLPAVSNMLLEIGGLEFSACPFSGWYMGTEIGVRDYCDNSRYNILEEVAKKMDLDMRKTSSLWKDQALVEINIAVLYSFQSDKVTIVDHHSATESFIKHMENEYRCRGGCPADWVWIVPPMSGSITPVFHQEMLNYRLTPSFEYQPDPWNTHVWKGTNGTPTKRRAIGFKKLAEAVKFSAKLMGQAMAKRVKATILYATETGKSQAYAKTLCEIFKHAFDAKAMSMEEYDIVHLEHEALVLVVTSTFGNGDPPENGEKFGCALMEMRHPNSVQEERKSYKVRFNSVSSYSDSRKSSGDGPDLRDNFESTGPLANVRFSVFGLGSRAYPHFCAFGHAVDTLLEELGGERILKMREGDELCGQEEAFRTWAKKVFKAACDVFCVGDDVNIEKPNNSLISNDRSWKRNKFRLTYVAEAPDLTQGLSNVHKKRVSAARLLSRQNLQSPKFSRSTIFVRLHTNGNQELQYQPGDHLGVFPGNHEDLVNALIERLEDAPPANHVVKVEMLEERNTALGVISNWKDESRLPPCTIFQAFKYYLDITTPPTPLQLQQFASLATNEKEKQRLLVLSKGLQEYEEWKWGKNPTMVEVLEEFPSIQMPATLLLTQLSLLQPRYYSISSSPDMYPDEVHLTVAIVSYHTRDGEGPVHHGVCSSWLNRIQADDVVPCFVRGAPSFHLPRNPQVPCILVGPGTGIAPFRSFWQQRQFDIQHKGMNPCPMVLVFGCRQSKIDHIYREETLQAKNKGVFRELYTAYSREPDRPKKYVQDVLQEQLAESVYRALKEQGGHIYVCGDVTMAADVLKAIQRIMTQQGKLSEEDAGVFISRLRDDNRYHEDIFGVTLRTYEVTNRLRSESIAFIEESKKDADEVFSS

[4] = molecular target: T1, Nitric oxide synthase, inducible; assay: Compound was evaluated as nitric oxide producing substrate of mouse Inducible nitric oxide synthase using the Griess assay; NA means Not active
Nitric oxide synthase 3 [5] = molecular target: T2, Nitric oxide synthase 3; assay: Inhibition of bovine endothelial nitric oxide synthase catalyzed [14C]L-citrulline production at a compound concentration of 1 mM in presence of 50 uM L-arginine
Nitric oxide synthase 1 [6] = molecular target: T3, Nitric oxide synthase 1; assay: Inhibition of rat neuronal nitric oxide synthase catalyzed [14C]L-citrulline production at a compound concentration of 1 mM in presence of 50 uM L-arginine

SMILES	pIC50 [1]	NO-producing substrate activity (Nitric oxide synthase 3 [2])	NO production as substrate (Nitric oxide synthase 1 [3])	NO production as substrate [4]	pIC50 (Nitric oxide synthase 3 [5])	other results
c1c[nH]cn1 [IMIDAZOLE]	4.40					
N/C(=N\CCC[C@H](N)C(=O)O)NCc1c[nH]cn1		Not Active	Not Active	Not Active		
N=C(N)NCCc1c[nH]cn1		Not Active	Not Active	Not Active		
c1ccc(-c2ncc[nH]2)cc1 [2-PHENYLIMIDAZOLE]	< 3.00					
N=C(N)NCc1c[nH]cn1		Not Active	Not Active	Not Active		
N/C(=N\CCC[C@@H](N)C(=O)O)NCc1ncc[nH]1					3.46	pIC50 (Nitric oxide synthase 1 [6]): 2.80
N/C(=N\CCC[C@@H](N)C(=O)O)NCCc1c[nH]cn1					2.96	
N=C(N)NCc1ncc[nH]1	3.86					
N=C(N)NCCc1ncc[nH]1		Not Active	Not Active	Not Active		
N/C(=N\CCC[C@@H](N)C(=O)O)NCCc1ncc[nH]1					3.20	pIC50 (Nitric oxide synthase 1 [6]): 2.83
